Assay [1] deals with Sphingosine kinase 1 (Homo sapiens, UniProt Q9NYA1). The experiment in a line: Inhibition of human SphK1 expressed in baculovirus infected in Sf9 cells using D-erythro-sphingosine as substrate and [gamma-32P]ATP by scintillation counting method.
The target in assay [2] is T1, Sphingosine kinase 2 (Homo sapiens, UniProt Q9NRA0).
T1 sequence (Q9NRA0 whole entry): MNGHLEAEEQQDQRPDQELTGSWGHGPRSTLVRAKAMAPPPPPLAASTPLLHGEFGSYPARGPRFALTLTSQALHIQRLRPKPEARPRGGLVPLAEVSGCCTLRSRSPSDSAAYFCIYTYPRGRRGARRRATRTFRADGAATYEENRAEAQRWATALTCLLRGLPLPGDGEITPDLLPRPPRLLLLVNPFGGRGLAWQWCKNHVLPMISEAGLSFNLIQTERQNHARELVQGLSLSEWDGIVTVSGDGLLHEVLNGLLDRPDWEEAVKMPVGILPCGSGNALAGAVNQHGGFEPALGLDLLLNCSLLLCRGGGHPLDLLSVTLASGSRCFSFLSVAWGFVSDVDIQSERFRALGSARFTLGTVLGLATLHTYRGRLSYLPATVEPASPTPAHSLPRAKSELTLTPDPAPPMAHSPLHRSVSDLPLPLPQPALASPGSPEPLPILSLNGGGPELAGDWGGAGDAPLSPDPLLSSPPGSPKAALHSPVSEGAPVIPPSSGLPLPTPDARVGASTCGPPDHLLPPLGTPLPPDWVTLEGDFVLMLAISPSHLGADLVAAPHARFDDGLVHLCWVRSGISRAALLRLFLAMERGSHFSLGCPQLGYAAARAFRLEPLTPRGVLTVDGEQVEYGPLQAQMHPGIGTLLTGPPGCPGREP
The experiment in a line: Inhibition of human SphK2 expressed in baculovirus infected in Sf9 cells using D-erythro-sphingosine as substrate and [gamma-32P]ATP by scintillation counting method.

Chain of Sphingosine kinase 1 (Q9NYA1 whole entry): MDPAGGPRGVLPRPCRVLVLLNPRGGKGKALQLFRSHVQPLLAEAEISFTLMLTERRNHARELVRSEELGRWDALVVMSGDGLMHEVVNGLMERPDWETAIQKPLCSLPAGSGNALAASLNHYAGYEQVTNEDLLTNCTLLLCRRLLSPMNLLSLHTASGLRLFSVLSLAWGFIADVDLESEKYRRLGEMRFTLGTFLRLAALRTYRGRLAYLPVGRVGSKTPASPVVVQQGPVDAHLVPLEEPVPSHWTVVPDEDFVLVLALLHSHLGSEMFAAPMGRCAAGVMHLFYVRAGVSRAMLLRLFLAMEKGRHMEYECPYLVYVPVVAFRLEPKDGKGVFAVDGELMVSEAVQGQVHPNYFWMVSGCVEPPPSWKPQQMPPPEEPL

What is called Ki is the equilibrium dissociation constant of an inhibitor or competing ligand from its target. Higher therefore signals lower affinity. In the case of `CCCCCCCCCCCCc1ccc(-c2noc(C3(C(=N)N)CC3)n2)cc1`, the inhibition constant (Ki) in assay [1] came to 320 nM; in assay [2], 6 µM.

With `CCCCCCCCCCCCc1cccc(-c2noc(C3(C(=N)N)CC3)n2)c1`, the values for the Ki in assay [1] and in assay [2] were 40 nM and 14.1 µM, respectively.

As for `CCCCCCCCCCCc1cccc(-c2noc(C3(C(=N)N)CC3)n2)c1`, the Ki in assay [1] came out at 70 nM; in assay [2] it was 9.9 µM.

Consider `CCCCCCCCCCCCCc1ccc(-c2noc(C3(C(=N)N)CC3)n2)cc1`, for which the Ki worked out at 2500 nM in assay [1] and 11 µM in assay [2].

The values are drawn from ChEMBL document CHEMBL3808381, “Structural Requirements and Docking Analysis of Amidine-Based Sphingosine Kinase 1 Inhibitors Containing Oxadiazoles” (ACS Med Chem Lett, 2016).
